Measured values from ChEMBL document CHEMBL3045049, “Synthesis and antiviral activity of new 3-methyl-1,5-diphenyl-1H-pyrazole derivatives” (Med Chem Res, 2012).
Activity calls are given as the source filed them. No cut-off for these calls is given here.

Legend:
Human alphaherpesvirus 1 = assay: Antiviral activity against Human herpesvirus 1 infected African green monkey Vero cells after 66 hr by viral plaque reduction assay; assay type: functional; set-up: concentration or dose not given beside the values
Vero = assay: Cytotoxicity against Chlorocebus aethiops (African green monkey) Vero cells after 24 hr; assay type: cell-based; conditions: chlorocebus sabaeus

SMILES	Activity (Human alphaherpesvirus 1)	Activity (Vero)
Cc1nn(-c2ccccc2)c(-c2ccccc2)c1-c1cc(-c2ccc(Br)cc2)[nH]c(=O)c1C#N	52%	
Cc1nn(-c2ccccc2)c(-c2ccccc2)c1C1CC(c2ccc(Br)cc2)=NO1 (centres undefined)	10%	
COc1ccc(C(=O)/C=C/c2c(C)nn(-c3ccccc3)c2-c2ccccc2)cc1	inactive	Toxic
COc1ccc(OC)c(C2=NNC(c3c(C)nn(-c4ccccc4)c3-c3ccccc3)C2)c1 (centres undefined)	22%	
Cc1nn(-c2ccccc2)c(-c2ccccc2)c1/C=C/C(=O)c1ccc(N)cc1	inactive	Toxic
CSc1cccc(Nc2nc(-c3ccc(C)cc3)cc(-c3c(C)nn(-c4ccccc4)c3-c3ccccc3)n2)c1	52%	
Cc1nn(-c2ccccc2)c(-c2ccccc2)c1-c1cc(-c2ccc(Br)cc2)nc(N)c1C#N	51%	
Cc1nn(-c2ccccc2)c(-c2ccccc2)c1C1CC(c2ccc(N)cc2)=NN1c1ccccc1 (centres undefined)	inactive	Toxic
Cc1nn(-c2ccccc2)c(-c2ccccc2)c1/C=C/C(=O)c1cccc(N)c1	10%	
Cc1nn(-c2ccccc2)c(-c2ccccc2)c1C1CC(c2ccc(Br)cc2)=NN1c1ccccc1 (centres undefined)	inactive	Toxic
Cc1nn(-c2ccccc2)c(-c2ccccc2)c1-c1cc(-c2ccc(Br)cc2)nc2nc(/C=C/C(=O)O)[nH]c(=O)c12	10%	
Cc1ccc(C2=NNC(c3c(C)nn(-c4ccccc4)c3-c3ccccc3)C2)cc1 (centres undefined)	22%	
COc1ccc(O)c(C2=NOC(c3c(C)nn(-c4ccccc4)c3-c3ccccc3)C2)c1 (centres undefined)	inactive	Toxic
Nc1nc2c(ncn2COCCO)c(=O)[nH]1 [ACYCLOVIR]	100%	
Cc1nn(-c2ccccc2)c(-c2ccccc2)c1C1CC(c2ccc(Br)cc2)=NN1 (centres undefined)	18%	
Cc1ccc(C(=O)/C=C/c2c(C)nn(-c3ccccc3)c2-c2ccccc2)cc1	10%	
COc1ccc(C2=NN(c3ccccc3)C(c3c(C)nn(-c4ccccc4)c3-c3ccccc3)C2)cc1 (centres undefined)	inactive	Toxic
Cc1nn(-c2ccccc2)c(-c2ccccc2)c1C1CC(c2cccc(N)c2)=NN1 (centres undefined)	15%	
Cc1ccc(C2=NOC(c3c(C)nn(-c4ccccc4)c3-c3ccccc3)C2)cc1 (centres undefined)	53%	
COc1ccc(C2=NNC(c3c(C)nn(-c4ccccc4)c3-c3ccccc3)C2)cc1 (centres undefined)	22%	
Cc1nn(-c2ccccc2)c(-c2ccccc2)c1C1CC(c2cccc(N)c2)=NO1 (centres undefined)	22%	
Cc1nn(-c2ccccc2)c(-c2ccccc2)c1-c1cc(-c2ccc(Br)cc2)nc(N2C(=O)c3ccccc3C2=O)c1C#N	22%	
Cc1nn(-c2ccccc2)c(-c2ccccc2)c1C1CC(c2cccc(N)c2)=NN1c1ccccc1 (centres undefined)	11%	
COc1ccc(OC)c(C(=O)/C=C/c2c(C)nn(-c3ccccc3)c2-c2ccccc2)c1	17%	
Cc1nn(-c2ccccc2)c(-c2ccccc2)c1C1CC(c2ccc(N)cc2)=NO1 (centres undefined)	10%	
COc1ccc(C2=NOC(c3c(C)nn(-c4ccccc4)c3-c3ccccc3)C2)cc1 (centres undefined)	inactive	Toxic
Cc1nn(-c2ccccc2)c(-c2ccccc2)c1C1CC(c2ccc(N)cc2)=NN1 (centres undefined)	10%	
Cc1nn(-c2ccccc2)c(-c2ccccc2)c1/C=C/C(=O)c1ccc(Br)cc1	22%	
COc1ccc(OC)c(C2=NN(c3ccccc3)C(c3c(C)nn(-c4ccccc4)c3-c3ccccc3)C2)c1 (centres undefined)	inactive	Toxic
Cc1ccc(C2=NN(c3ccccc3)C(c3c(C)nn(-c4ccccc4)c3-c3ccccc3)C2)cc1 (centres undefined)	inactive	Toxic
